Key:
Type in all cases: biochemical
Human liver Cathepsin L = Human liver Cathepsin L (Homo sapiens (Human), UniProt P07711); experiment: Cathepsin L inhibition, fluorometric Z-F-R-AMC assay; conditions: 1 nM cathepsin L, 50 μM Z-F-R-AMC, pH 5.5, 5 min preincubation, 25° C.
Method: Human liver Cathepsin L (Sigma) was preincubated with test compounds at various concentrations for 5 minutes at 25° C. The assay was initiated by addition of substrate Z-Phe-Arg-aminomethylcoumarin (“Z-F-R-AMC” Bacchem) and the final assay conditions were 1 nM cathepsin L, 50 μM Z-F-R-AMC, 100 mM sodium acetate pH 5.5, 1 mM EDTA (Omnipure), 3 mM DTT (EMD), 0.01% BRIJ 35 (Sigma), and 2.0% DMSO (Acros). Test compounds were serially diluted with DMSO and water to include a final concentration range of 10 μM to 10 pM. The reaction was monitored fluorometrically for 5 minutes at 25° C. using black 96-well Corning 3686 assay microplates with a Thermo Fluoroskan Ascent FL microplate reader at excitation and emission filter wavelengths of 355 nm and 460 nm, respectively. Data were analyzed to determine IC50 values utilizing GraphPad Prism 4.03 software with a minimum of a triplicate on the same microplate.

[1] = biological target: Cathepsin K (activated recombinant human procathepsin K) (Homo sapiens (Human), UniProt P43235); experiment: Cathepsin K inhibition, fluorometric Z-F-R-AMC assay; conditions: 1.5 nM cathepsin K, 50 μM Z-F-R-AMC, pH 5.5, 5 min preincubation, 25° C.
Method: Recombinant human procathepsin K was obtained from Enzo Life Sciences. Activation of the proenzyme was performed in 32.5 mM sodium acetate pH 3.5, EDTA 1 mM, NaCl 500 mM, human procathepsin K 5.5 μM, at room temperature. Activation times were optimized and varied between 35 and 150 minutes. Cathepsin K was preincubated with test compounds at various concentrations for 5 minutes at 25° C. The assay was initiated by addition of substrate Z-Phe-Arg-aminomethylcoumarin (“Z-F-R-AMC” Bacchem) and the final assay conditions were 1.5 nM cathepsin K, 50 μM Z-F-R-AMC, 150 mM sodium acetate pH 5.5, 2.5 mM EDTA (Omnipure), 2.5 mM DTT (EMD), 0.01% BRIJ 35 (Sigma), and 4.0% DMSO (Acros). Test compounds were serially diluted with DMSO and water to include a final concentration range of 10 μM to 10 pM. The reaction was monitored fluorometrically for 5 minutes at 25° C. using black 96-well Corning 3686 assay microplates with a Thermo Fluoroskan Ascent FL microplate reader at excitation and emission filter wavelengths of 355 nm and 460 nm, respectively. Data were analyzed to determine IC50 values utilizing GraphPad Prism 4.03 software with a minimum of a triplicate on the same microplate.

Human liver Cathepsin B = Human liver Cathepsin B (Homo sapiens (Human), UniProt P07858); experiment: Cathepsin B inhibition, fluorometric Z-R-R-AMC assay; conditions: 1.1 nM cathepsin B, 60 μM Z-R-R-AMC, pH 6.0, 5 min preincubation, 37° C.
Method: Human liver Cathepsin B (Calbiochem) was pre-incubated with test compound at various concentrations for 5 minutes at 37° C. The assay was initiated by addition of substrate Z-Arg-Arg-aminomethylcoumarin (“Z-R-R-AMC” Bacchem) and the final assay conditions were 1.1 nM cathepsin B, 60 μM Z-R-R-AMC, 126 mM sodium potassium phosphate pH 6.0 (Fisher), 0.3 mM EDTA (Omnipure), 2.7 mM DTT (Omnipure), 0.004% BRIJ 35 (Sigma), and 2.0% DMSO (Acros) in a final volume of 200 μL. Test compounds were serially diluted with DMSO and 0.01% BRIJ 35 to include a final concentration range of 20 μM to 10 pM. The reaction was monitored fluorometrically for 5 minutes at 37° C. using black 96-well Corning 3686 assay microplates with a Thermo Fluoroskan Ascent FL microplate reader at excitation and emission filter wavelengths of 355 nm and 460 nm, respectively. Data were analyzed to determine IC50 values utilizing GraphPad Prism 4.03 software with a minimum of a triplicate on the same microplate.

Human liver Cathepsin L, sequence (P07711 114-333): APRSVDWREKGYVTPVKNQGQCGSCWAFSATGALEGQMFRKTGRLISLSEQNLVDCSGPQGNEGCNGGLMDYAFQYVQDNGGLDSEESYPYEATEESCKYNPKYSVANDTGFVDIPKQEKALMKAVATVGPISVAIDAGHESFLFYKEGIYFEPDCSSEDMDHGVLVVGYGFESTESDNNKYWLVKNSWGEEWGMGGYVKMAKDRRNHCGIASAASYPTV
Cathepsin K (activated recombinant human procathepsin K), sequence (P43235 115-329): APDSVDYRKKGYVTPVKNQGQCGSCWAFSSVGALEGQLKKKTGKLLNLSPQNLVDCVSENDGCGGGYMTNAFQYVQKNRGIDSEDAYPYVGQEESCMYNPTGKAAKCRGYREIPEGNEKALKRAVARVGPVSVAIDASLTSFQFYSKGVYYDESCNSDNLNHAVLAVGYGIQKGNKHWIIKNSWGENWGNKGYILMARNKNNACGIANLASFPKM

Structure (SMILES) | IC50 (Human liver Cathepsin L) [nM] | IC50 [1] [nM] | IC50 (Human liver Cathepsin B) [nM]
NC(=S)NN=C(c1ccccc1)c1cccc(C(=O)c2ccccc2)c1 [Compound 3, 3-benzoyl benzophenone thiosemicarbazone] | 10.5 | 17.4 | > 10000
NC(=S)NN=C(c1ccccc1)c1cccc(C(O)c2ccccc2)c1 (stereo not drawn) [Compound 6, 3-Benzoyl benzhydrol thiosemicarbazone] | 23.8 | – | > 10000
Cc1cccc(C(=O)c2cccc(C(=NNC(N)=S)c3cccc(C)c3)c2)c1 [Compound 9, 1-(3-methylbenzoyl),3-(3-methylbenzoyl)benzene thiosemicarbazone] | 7820 | 1030 | –
NC(=S)NN=C(c1cc(Br)cc(C(=O)c2ccccc2F)c1)c1ccccc1F [Compound 11, 1,3-bis(2-fluoro-benzoyl)-5-bromobenzene thiosemicarbazone] | 8.12 | – | > 10000
NC(=S)NN=C(c1ccc(F)cc1)c1cccc(C(=O)c2ccc(F)cc2)c1 [Compound 13, 1,3-bis-(4-fluorobenzoyl)benzene thiosemicarbazone] | 24.3 | 8500 | > 10000
CC(C)Oc1ccc(C(=O)c2cccc(C(=NNC(N)=S)c3ccc(OC(C)C)cc3)c2)cc1 [Compound 22, 1,3-bis-(4-isopropoxybenzoyl)benzene thiosemicarbazone] | > 10000 | – | > 10000
CC(C)Oc1ccc(C(=NNC(N)=S)c2cccc(C(=NNC(N)=S)c3ccc(OC(C)C)cc3)c2)cc1 [Compound 23, 1,3-bis-(4-isopropoxybenzoyl)benzene dithiosemicarbazone] | > 10000 | > 10000 | –
NC(=S)NN=C(c1ccc(Br)cc1)c1cccc(C(=O)c2ccc(Br)cc2)c1 [Compound 24, 1,3-bis-(4-bromobenzoyl)benzene thiosemicarbazone] | > 10000 | > 10000 | > 10000
NC(=S)NN=C(c1ccccc1)c1cc(C(=O)c2ccccc2)cc(C(=O)c2ccccc2)c1 [Compound 25, 1,3,5-Tribenzoyl benzene thiosemicarbazone] | 25 | 2800 | –
COc1ccc(C(=NNC(N)=S)c2cccc(C(=NNC(N)=S)c3ccc(OC)cc3)c2)cc1 [Compound 33, 1,3-bis-(4-methoxybenzoyl)benzene dithiosemicarbazone] | 587 | 2100 | > 10000

From US8877967B2, “Compositions and methods for inhibition of cathepsins” (OXiGENE, Inc., priority 2012, dated 2014)
